Experimental data published in paper PMC2131780, “A Tale of Switched Functions: From Cyclooxygenase Inhibition to M-Channel Modulation in New Diphenylamine Derivatives” (PLoS ONE, 2007).
pEC50: −log10 of the molar value.

What was measured:
[1] = molecular target: T1, Kv7.2/3 K+ channels (M-channels) (Homo sapiens, UniProt O43525+O43526); experiment: Whole-cell patch-clamp of recombinant Kv7.2/3 channels in CHO cells; assay type: cell-based; conditions: for M-channels (Kv7.2/Kv7.3) effect (opener / blocker / inactive): Kv7.2 and Kv7.3 coexpressed in CHO cells; for ΔV50 (mV), left-shift in half-activation potential: Kv7.2/3 in CHO cells; for pEC50: concentration-dependent left-shift ΔV50, sigmoidal fit, read-out: M-channel opener potency EC50
T1 construct: expressed in transfected cells; host or cells: CHO cells
Description: Chinese hamster ovary (CHO) cells were grown in Dulbecco's modified Eagle's medium (DMEM) supplemented with 2 mM glutamine, 10% fetal calf serum and antibiotics. Briefly, 40,000 cells seeded on poly-D-lysine-coated glass coverslips (13 mm diameter) in a 24-multiwell plate were transfected with pIRES-CD8 (0.5 µg) as a marker for transfection, and with Kv7.2 (0.5 µg) and Kv7.3 (0.5 µg). For electrophysiology, transfected cells were visualized approximately 40 hours following transfection, using anti-CD8 antibody-coated beads. Transfection was performed using Fugene 6 (Roche, Indianapolis IN, USA) according to the manufacturer's protocol.
Voltage-clamp recordings in CHO cells were performed, using the whole-cell configuration of the patch-clamp technique. Signals were amplified using an Axopatch 200B patch-clamp amplifier (Molecular Devices, Sunnyvale, CA), sampled at 2 kHz and filtered at 800 Hz via a 4-pole Bessel low pass filter. […] The patch pipettes were pulled from borosilicate glass (Warner Instrument Corp, USA) with a resistance of 2–5 MΩ. For K^+ current recordings in CHO cells, the intracellular pipette solution contained (in mM): 130 KCl, 1 MgCl2, 5 K2ATP, 5 EGTA, 10 HEPES, adjusted with KOH to pH 7.4 (290 mOsm). The extracellular solution contained (in mM): 140 NaCl, 4 KCl, 1.8 CaCl2, 1.2 MgCl2, 11 glucose, 5.5 HEPES, adjusted with NaOH to pH 7.4 (310 mOsm). Series resistances (3–13 MΩ) were compensated (75–90%) and periodically monitored.
Data analysis was performed using the Clampfit program (pClamp 9.2, Molecular Devices), Microsoft Excel (Microsoft) and Prism 4.0 (GraphPad). Chord conductance (G) was calculated by using the following equation: [drawing 1] where I corresponds to the current amplitude measured at the end of the pulse and Vrev, the calculated reversal potential. G was estimated at various test voltages V and then, normalized to a maximal conductance value, Gmax. Activation curves were fitted by one Boltzmann distribution: [drawing 2] where V50 is the voltage at which the current is half-activated and s is the slope factor. All data were expressed as mean±SEM. Statistically significant differences were assessed by Student's t-test. Analysis of sEPSCs and sIPSCs was done using the Clampfit program (pClamp 9.2, Molecular Devices) and included evaluation of the individual events as well as the average event amplitude and the integral of the event (total charge transfer).

[2] = tested on: COX enzymes (CT26 mouse colon adenocarcinoma cells); experiment: COX inhibition, PGE2 production in CT26 cells; assay type: cell-based; conditions: for IC50: average of two experiments in triplicate, read-out: COX inhibition (IC50, µM) CT26
Text: (§1) In addition, the aromatic rings of the diphenylamine moiety were substituted with different electron donating or withdrawing groups. In a first screen, two parameters were checked: (a) the non-selective inhibition of COX-1/COX-2 enzyme activities, measured by the production of PGE2 in cultured mouse colon adenocarcinoma (CT26) and mouse Lewis lung carcinoma cells (D122) cells; (b) the M-channel activity, measured by the heterologous coexpression of Kv7.2 and Kv7.3 subunits in Chinese hamster ovary (CHO) cells.
(§2) Mouse colon adenocarcinoma CT26 and mouse Lewis lung carcinoma D122 cells were grown in DMEM (D122) or RPMI (CT26) supplemented with 10% fetal calf serum, 4% glutamine, 1% penicillin-streptomycin-nystatin and 3% non essential amino acids (D122) and maintained in a humidified 37°C incubator with 5% CO2. For the COX assays, cells were grown onto 24 multiwell plates. Before the assay, cells were washed with serum-free medium; then tested compounds were added to the medium and incubated for 30 min at 37°C after which 30 µM arachidonic acid was added and incubated for additional 20 min. At the end of the incubations, 10 µM indomethacin was added to stop the reaction and medium was transferred to another 24 multiwell plate for measuring PGE2 production by radioimmunoassay (DuPont-NEN; Boston, MA) according to manufacturer protocol. Protein determination was assayed on scraped cells and was used to normalize the amount of PGE2 production. Assays with purified ovine COX-1 and human recombinant COX-2 were performed using the COX inhibitor screening assay (Cayman chemical company, Ann Arbor, MI), according to manufacturer protocol.

[3] = tested on: COX enzymes (D122 mouse Lewis lung carcinoma cells); experiment: COX inhibition, PGE2 production in D122 cells; assay type: cell-based; conditions: average of two experiments in triplicate
Text: as §1, §2

[4] = tested on: MES-induced tonic hind limb extension; experiment: Maximal electroshock seizure (MES) model; assay type: in vivo, mouse; conditions: mice, intraperitoneal, 30 min before electroshock; not shown
Description: This test is generally thought to be a model of generalized tonic-clonic seizure in human.
The anti-convulsant effect was measured by the maximal electroshock seizure model (MES) in ICR mice as previously described. The procedures followed for experimentation and maintenance of the animals were approved by the animal research ethics committee of Tel Aviv University and in accordance with the Guide for the Care and Use of Laboratory Animals (1996, National Academy of Sciences, Washington DC). Briefly, maximal electroshock was induced in adult mice by means of two transcorneal electrodes delivering an alternative current of 50 mA at 60 Hz for 0.2 sec using rodent shocker (Hugo Sachs Electronik, type 221). […] The drugs dissolved in 0.9% saline were administered intraperitoneally 30 min before the electroshock was performed. Animals failing to show tonic hind limb extension were scored as protected and were expressed in percentage.

T1 sequence (O43526 whole entry): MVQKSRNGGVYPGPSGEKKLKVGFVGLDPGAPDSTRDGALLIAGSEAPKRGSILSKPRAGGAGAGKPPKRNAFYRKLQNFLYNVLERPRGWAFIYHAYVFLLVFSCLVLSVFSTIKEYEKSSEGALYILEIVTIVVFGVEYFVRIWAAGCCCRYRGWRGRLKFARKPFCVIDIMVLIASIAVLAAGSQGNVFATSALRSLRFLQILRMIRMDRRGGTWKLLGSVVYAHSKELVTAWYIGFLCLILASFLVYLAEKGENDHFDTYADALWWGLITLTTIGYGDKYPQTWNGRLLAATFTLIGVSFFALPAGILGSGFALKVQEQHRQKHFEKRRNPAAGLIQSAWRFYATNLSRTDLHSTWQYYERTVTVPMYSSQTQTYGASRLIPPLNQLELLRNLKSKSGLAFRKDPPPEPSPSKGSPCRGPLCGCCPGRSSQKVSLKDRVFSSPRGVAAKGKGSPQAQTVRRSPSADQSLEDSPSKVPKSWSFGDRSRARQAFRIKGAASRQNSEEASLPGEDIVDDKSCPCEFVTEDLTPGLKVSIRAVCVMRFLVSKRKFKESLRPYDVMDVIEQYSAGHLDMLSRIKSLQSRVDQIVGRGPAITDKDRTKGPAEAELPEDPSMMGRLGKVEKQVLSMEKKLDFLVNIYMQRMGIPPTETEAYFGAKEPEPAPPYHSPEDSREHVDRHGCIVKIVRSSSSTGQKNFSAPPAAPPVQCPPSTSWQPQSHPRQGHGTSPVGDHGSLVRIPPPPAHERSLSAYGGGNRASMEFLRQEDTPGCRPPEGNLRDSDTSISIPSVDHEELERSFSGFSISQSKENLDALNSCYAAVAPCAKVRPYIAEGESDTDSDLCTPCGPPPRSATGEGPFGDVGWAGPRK
T1 sequence (O43525 whole entry): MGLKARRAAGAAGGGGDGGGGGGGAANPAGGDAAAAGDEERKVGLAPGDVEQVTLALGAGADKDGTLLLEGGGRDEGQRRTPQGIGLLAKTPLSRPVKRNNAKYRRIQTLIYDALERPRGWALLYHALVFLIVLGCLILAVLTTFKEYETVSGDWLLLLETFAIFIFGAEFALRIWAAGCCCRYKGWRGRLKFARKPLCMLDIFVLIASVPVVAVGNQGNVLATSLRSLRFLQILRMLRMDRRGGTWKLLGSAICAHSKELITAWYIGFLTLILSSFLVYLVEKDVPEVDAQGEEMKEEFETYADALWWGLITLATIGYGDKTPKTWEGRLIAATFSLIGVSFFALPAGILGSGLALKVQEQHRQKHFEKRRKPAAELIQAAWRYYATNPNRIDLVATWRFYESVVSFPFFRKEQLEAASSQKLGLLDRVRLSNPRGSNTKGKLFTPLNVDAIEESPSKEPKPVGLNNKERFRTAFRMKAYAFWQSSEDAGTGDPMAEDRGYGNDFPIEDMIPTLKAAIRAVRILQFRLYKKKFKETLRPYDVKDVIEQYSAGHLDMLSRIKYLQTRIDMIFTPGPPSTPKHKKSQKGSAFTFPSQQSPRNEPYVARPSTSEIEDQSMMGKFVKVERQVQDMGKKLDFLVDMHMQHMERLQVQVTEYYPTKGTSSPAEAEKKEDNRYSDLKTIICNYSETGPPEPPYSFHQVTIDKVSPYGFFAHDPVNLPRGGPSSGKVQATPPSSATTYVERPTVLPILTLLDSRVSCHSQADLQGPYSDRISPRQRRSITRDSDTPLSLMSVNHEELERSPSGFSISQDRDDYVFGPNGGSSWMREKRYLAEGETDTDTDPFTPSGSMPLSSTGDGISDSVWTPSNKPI

Compound: CC(C(=O)O)c1cccc(Oc2ccccc2)c1 (stereo not shown) [fenoprofen, reference compound]
- M-channels (Kv7.2/Kv7.3) effect (opener / blocker / inactive) [1]: do not activate

Compound: Cc1ccc(Cl)c(Nc2ccccc2C(=O)O)c1Cl [Meclofenamic acid, reference compound]
- ΔV50 (mV), left-shift in half-activation potential [1]: −22.7 mV
- M-channels (Kv7.2/Kv7.3) effect (opener / blocker / inactive) [1]: opener
- M-channels (Kv7.2/Kv7.3) effect (opener / blocker / inactive) ([1]; listed as meclofenamate): openers
- pEC50 [1]: 4.60

Compound: O=C(O)c1ccccc1Nc1cccc(C(F)(F)F)c1 [flufenamate, reference compound]
- M-channels (Kv7.2/Kv7.3) effect (opener / blocker / inactive) [1]: openers

Compound: CC(C(=O)O)c1ccc(-c2ccccc2)c(F)c1 (stereo not shown) [flurbiprofen, reference compound]
- M-channels (Kv7.2/Kv7.3) effect (opener / blocker / inactive) [1]: do not activate

Compound: O=C(Cc1cc([N+](=O)[O-])ccc1Nc1c(Cl)cccc1Cl)NCCO [Compound 7]
- effect on COX activity (Figure 1) [2]: completely unaffected
- IC50 [2]: > 50 µM
- IC50 [3]: > 50 µM
- ΔV50 (mV), left-shift in half-activation potential [1]: −12.2 mV
- M-channels (Kv7.2/Kv7.3) effect (opener / blocker / inactive) [1]: opener
- pEC50 [1]: 4.77

Compound: Cc1cccc(Nc2ccccc2C(=O)O)c1C [mefenamate, reference compound]
- M-channels (Kv7.2/Kv7.3) effect (opener / blocker / inactive) [1]: openers

Compound: O=C(O)Cc1ccccc1Nc1c(Cl)cccc1Cl [Diclofenac, reference compound]
- IC50 [2]: 0.003 µM
- IC50 [3]: 0.1 µM
- M-channels (Kv7.2/Kv7.3) effect (opener / blocker / inactive) [1]: opener
- M-channels (Kv7.2/Kv7.3) effect (opener / blocker / inactive) ([1]; listed as diclofenac): openers
- pEC50 [1]: 5.59

Compound: O=C1NC(=O)C(c2ccccc2)(c2ccccc2)N1 [phenytoin]
- dose that fully prevented hind limb extension [4]: 20 mg/kg

Compound: CCCC(CCC)C(=O)O [sodium valproate]
- dose that fully prevented hind limb extension [4]: 500 mg/kg

Compound: COc1ccc2cc([C@H](C)C(=O)O)ccc2c1 [naproxen, reference compound]
- M-channels (Kv7.2/Kv7.3) effect (opener / blocker / inactive) [1]: do not activate
